# Patent publication US7411083B2, “Substituted acetic acid derivatives” (Wyeth, priority 2003, dated 2008)
# Target: T1, recombinant human plasminogen activator inhibitor-1 (PAI-1) (Homo sapiens, UniProt P05121)
# T1 construct: purchased Molecular Innovations, Royal Oak, Mich
# Assay: Screening for PAI-1 inhibition (residual tPA activity, Spectrozyme-tPA chromogenic substrate)
# Assay type: biochemical
# Conditions: test compound at 100 Um; pH 6.6 buffer, 140 nM PAI-1, 70 nM tPA
# Procedure: Screening for PAI-1 inhibition. Test compounds are dissolved in DMSO at a final concentration of 10 Mm, then diluted 100× in physiologic buffer. The inhibitory assay is initiated by the addition of the test compound (1-100 μM final concentration, maximum DMSO concentration of 0.2%) in a Ph 6.6 buffer containing 140 Nm recombinant human plasminogen activator inhibitor-1 (PAI-1; Molecular Innovations, Royal Oak, Mich.). Following a 1 hour incubation at room temperature, 70 Nm of recombinant human tissue plasminogen activator (Tpa) is added, and the combination of the test compound, PAI-1 and Tpa is incubated for an additional 30 minutes. Following the second incubation, Spectrozyme-Tpa (American Diagnostica, Greenwich, Conn.), a chromogenic substrate for Tpa, is added and absorbance read at 405 nm at 0 and 60 minutes. Relative PAI-1 inhibition is equal to the residual Tpa activity in the presence of the test compounds and PAI-1. Control treatments include the complete inhibition of Tpa by PAI-1 at the molar ratio employed (2:1), and the absence of any effect of the test compound on Tpa alone.
# T1 sequence (P05121 24-402): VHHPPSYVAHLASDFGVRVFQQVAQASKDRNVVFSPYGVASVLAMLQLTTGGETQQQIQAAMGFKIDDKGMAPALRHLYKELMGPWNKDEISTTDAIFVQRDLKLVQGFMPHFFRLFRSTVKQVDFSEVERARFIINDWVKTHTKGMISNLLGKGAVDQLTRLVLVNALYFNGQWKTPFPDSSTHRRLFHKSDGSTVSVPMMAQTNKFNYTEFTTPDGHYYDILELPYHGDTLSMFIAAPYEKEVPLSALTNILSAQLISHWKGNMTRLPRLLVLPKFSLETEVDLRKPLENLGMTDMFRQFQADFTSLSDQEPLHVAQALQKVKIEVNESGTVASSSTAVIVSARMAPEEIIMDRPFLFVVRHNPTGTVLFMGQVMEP
row,Structure (SMILES),inhibition at 100 µM [%]
1,"C#CCn1cc(/C=N/OCC(=O)O)c2cc(OCc3cccc(C(F)(F)F)c3)ccc21 [Compound 42, ({[(1E)-(1-(2-propynyl)-5-{[3-(trifluoromethyl)benzyl]oxy}-1H-indol-3-yl)methylidene]amino}oxy)acetic acid]",96
2,"Cn1cc(/C=N/OCC(=O)O)c2cc(OCc3cccc(C(F)(F)F)c3)ccc21 [Compound 43, ({[(1E)-(1-methyl-5-{[3-(trifluoromethyl)benzyl]oxy}-1H-indol-3-yl)methylidene]amino}oxy)acetic acid]",81
3,"Cn1cc(/C=N/OCC(=O)O)c2cc(OCc3ccccc3Cl)ccc21 [Compound 50, {[((1E)-{5-[(2-chlorobenzyl)oxy]-1-methyl-1H-indol-3-yl}methylidene)amino]oxy}acetic acid]",31
4,"O=C(O)CO/N=C/c1cn(Cc2ccccc2)c2ccc(OCc3ccc(Cl)c(Cl)c3)cc12 [Compound 53, {[((1E)-{1-benzyl-5-[(3,4-dichlorobenzyl)oxy]-1H-indol-3-yl}methylidene)amino]oxy}acetic acid]",76
5,"Cn1cc(/C=N/OCC(=O)O)c2cc(OCc3ccc(Cl)c(Cl)c3)ccc21 [Compound 54, {[((1E)-{5-[(3,4-dichlorobenzyl)oxy]-1-methyl-1H-indol-3-yl}methylidene)amino]oxy}acetic acid]",91
6,"O=C(O)CO/N=C/c1cn(Cc2ccccc2)c2ccc(OCc3ccc4ccccc4c3)cc12 [Compound 56, [({(1E)-[1-benzyl-5-(2-naphthylmethoxy)-1H-indol-3-yl]methylidene}amino)oxy]acetic acid]",62
7,"Cn1cc(/C=N/OCC(=O)O)c2cc(OCc3ccc4ccccc4c3)ccc21 [Compound 57, [({(1E)-[1-methyl-5-(2-naphthylmethoxy)-1H-indol-3-yl]methylidene}amino)oxy]acetic acid]",64
8,"O=C(O)CO/N=C/c1cccc(-c2cccc(OCc3ccc(C(F)(F)F)cc3)c2)c1 [Compound 58, ({[(1E)-(3′-{[4-(trifluoromethyl)benzyl]oxy}-1,1′-biphenyl-3-yl)methylidene]amino}oxy)acetic acid]",84
9,"CC(C)(C)c1ccc(COc2cccc(-c3cccc(/C=N/OCC(=O)O)c3)c2)cc1 [Compound 59, {[((1E)-{3′-[(4-tert-butylbenzyl)oxy]-1,1′-biphenyl-3-yl}methylidene)amino]oxy}acetic acid]",63
10,"O=C(O)CO/N=C/c1cccc(-c2cccc(OCc3ccc(Br)cc3)c2)c1 [Compound 60, {[((1E)-{3′-[(4-bromobenzyl)oxy]-1,1′-biphenyl-3-yl}methylidene)amino]oxy}acetic acid]",88
11,"O=C(O)CO/N=C/c1cccc(-c2cccc(OCc3cc(C(F)(F)F)cc(C(F)(F)F)c3)c2)c1 [Compound 61, ({[(1E)-(3′-{[3,5-bis(trifluoromethyl)benzyl]oxy}-1,1′-biphenyl-3-yl)methylidene]amino}oxy)acetic acid]",74
12,"O=C(O)CO/N=C/c1cccc(-c2cccc(OCc3cccc(Br)c3)c2)c1 [Compound 62, {[((1E)-{3′-[(3-bromobenzyl)oxy]-1,1′-biphenyl-3-yl}methylidene)amino]oxy}acetic acid]",84
13,"O=C(O)CO/N=C/c1cccc(-c2cccc(OCc3cccc(Cl)c3)c2)c1 [Compound 63, {[((1E)-{3′-[(3-chlorobenzyl)oxy]-1,1′-biphenyl-3-yl}methylidene)amino]oxy}acetic acid]",91
14,"O=C(O)CO/N=C/c1cccc(-c2cccc(OCc3ccccc3)c2)c1 [Compound 64, [({(1E)-[3′-(benzyloxy)-1,1′-biphenyl-3-yl]methylidene}amino)oxy]acetic acid]",92
15,"O=C(O)CO/N=C/c1cccc(-c2cccc(OCc3cccc(C(F)(F)F)c3)c2)c1 [Compound 65, ({[(1E)-(3′-{[3-(trifluoromethyl)benzyl]oxy}-1,1′-biphenyl-3-yl)methylidene]amino}oxy)acetic acid]",84
16,"O=C(O)CO/N=C/c1cccc(-c2cccc(OCc3ccc(Cl)cc3)c2)c1 [Compound 66, {[((1E)-{3′-[(4-chlorobenzyl)oxy]-1,1′-biphenyl-3-yl}methylidene)amino]oxy}acetic acid]",84
17,"O=C(O)CO/N=C/c1cccc(-c2cccc(OCc3ccccc3Cl)c2)c1 [Compound 67, {[((1E)-{3′-[(2-chlorobenzyl)oxy]-1,1′-biphenyl-3-yl}methylidene)amino]oxy}acetic acid]",87
18,"O=C(O)CO/N=C/c1cccc(-c2cccc(OCc3ccc(Cl)c(Cl)c3)c2)c1 [Compound 68, {[((1E)-{3′-[(3,4-dichlorobenzyl)oxy]-1,1′-biphenyl-3-yl}methylidene)amino]oxy}acetic acid]",83
19,"O=C(O)CO/N=C/c1cccc(-c2cccc(OCc3ccc4ccccc4c3)c2)c1 [Compound 69, [({(1E)-[3′-(2-naphthylmethoxy)-1,1′-biphenyl-3-yl]methylidene}amino)oxy]acetic acid]",53
20,"Cc1ccc(COc2cccc(-c3cccc(/C=N/OCC(=O)O)c3)c2)cc1 [Compound 70, {[((1E)-{3′-[(4-methylbenzyl)oxy]-1,1′-biphenyl-3-yl}methylidene)amino]oxy}acetic acid]",83
21,"Cc1cccc(COc2cccc(-c3cccc(/C=N/OCC(=O)O)c3)c2)c1 [Compound 71, {[((1E)-{3′-[(3-methylbenzyl)oxy]-1,1′-biphenyl-3-yl}methylidene)amino]oxy}acetic acid]",85
22,"O=C(O)CO/N=C/c1cccc(-c2cccc(OCc3c(Cl)cccc3Cl)c2)c1 [Compound 72, {[((1E)-{3′-[(2,6-dichlorobenzyl)oxy]-1,1′-biphenyl-3-yl}methylidene)amino]oxy}acetic acid]",88

# Continued, values first:
row,inhibition at 100 µM [%],Structure (SMILES)
1,62,"C#CCn1cc(/C=N/OCC(=O)O)c2cc(OCc3cccc(Cl)c3)ccc21 [Compound 38, [({(1E)-[5-[(3-chlorobenzyl)oxy]-1-(2-propynyl)-1H-indol-3-yl]methylidene}amino)oxy]acetic acid]"
2,48,"Cn1cc(/C=N/OCC(=O)O)c2cc(OCc3cccc(Cl)c3)ccc21 [Compound 39, {[((1E)-{5-[(3-chlorobenzyl)oxy]-1-methyl-1H-indol-3-yl}methylidene)amino]oxy}acetic acid]"
3,50,"C=CCn1cc(/C=N/OCC(=O)O)c2cc(OCc3ccccc3)ccc21 [Compound 40, [({(1E)-[1-allyl-5-(benzyloxy)-1H-indol-3-yl]methylidene}amino)oxy]acetic acid]"
4,96,"O=C(O)CO/N=C/c1cn(Cc2ccccc2)c2ccc(OCc3ccccc3)cc12 [Compound 41, [({(1E)-[1-benzyl-5-(benzyloxy)-1H-indol-3-yl]methylidene}amino)oxy]acetic acid]"
5,83,"C#CCn1cc(/C=N/OCC(=O)O)c2cc(OCc3ccc(Cl)cc3)ccc21 [Compound 44, [({(1E)-[5-[(4-chlorobenzyl)oxy]-1-(2-propynyl)-1H-indol-3-yl]methylidene}amino)oxy]acetic acid]"
6,96,"C=CCn1cc(/C=N/OCC(=O)O)c2cc(OCc3ccc(Cl)cc3)ccc21 [Compound 45, {[((1E)-{1-allyl-5-[(4-chlorobenzyl)oxy]-1H-indol-3-yl}methylidene)amino]oxy}acetic acid]"
7,86,"O=C(O)CO/N=C/c1cn(Cc2ccccc2)c2ccc(OCc3ccc(Cl)cc3)cc12 [Compound 46, {[((1E)-{1-benzyl-5-[(4-chlorobenzyl)oxy]-1H-indol-3-yl}methylidene)amino]oxy}acetic acid]"
8,31,"Cn1cc(/C=N/OCC(=O)O)c2cc(OCc3ccc(Cl)cc3)ccc21 [Compound 47, {[((1E)-{5-[(4-chlorobenzyl)oxy]-1-methyl-1H-indol-3-yl}methylidene)amino]oxy}acetic acid]"
9,79,"C#CCn1cc(/C=N/OCC(=O)O)c2cc(OCc3ccccc3Cl)ccc21 [Compound 48, [({(1E)-[5-[(2-chlorobenzyl)oxy]-1-(2-propynyl)-1H-indol-3-yl]methylidene}amino)oxy]acetic acid]"
10,93,"C=CCn1cc(/C=N/OCC(=O)O)c2cc(OCc3ccccc3Cl)ccc21 [Compound 49, {[((1E)-{1-allyl-5-[(2-chlorobenzyl)oxy]-1H-indol-3-yl}methylidene)amino]oxy}acetic acid]"
11,86,"C#CCn1cc(/C=N/OCC(=O)O)c2cc(OCc3ccc(Cl)c(Cl)c3)ccc21 [Compound 51, [({(1E)-[5-[(3,4-dichlorobenzyl)oxy]-1-(2-propynyl)-1H-indol-3-yl]methylidene}amino)oxy]acetic acid]"
12,72,"C=CCn1cc(/C=N/OCC(=O)O)c2cc(OCc3ccc(Cl)c(Cl)c3)ccc21 [Compound 52, {[((1E)-{1-allyl-5-[(3,4-dichlorobenzyl)oxy]-1H-indol-3-yl}methylidene)amino]oxy}acetic acid]"
13,81,"C=CCn1cc(/C=N/OCC(=O)O)c2cc(OCc3ccc4ccccc4c3)ccc21 [Compound 55, [({(1E)-[1-allyl-5-(2-naphthylmethoxy)-1H-indol-3-yl]methylidene}amino)oxy]acetic acid]"
